Measurements reported in article PMC6429263, “Evolution and Antibacterial Evaluation of 8-Hydroxy-cycloberberine Derivatives as a Novel Family of Antibacterial Agents Against MRSA” (Molecules, 2019).
Converted amounts (≈) assume the structure as drawn. Like-named read-outs stand apart in the source and are kept apart here.

Legend:
MSSA ATCC 29213 = test: MIC, agar dilution, MSSA ATCC 29213; type: cell-based, S. aureus; conditions: Staphylococcus aureus
MSSA 15 = test: MIC, agar dilution, MSSA 15 (clinical isolate); type: cell-based, S. aureus; conditions: Staphylococcus aureus
MSSA 16-1 = test: MIC, agar dilution, MSSA 16-1 (clinical isolate); type: cell-based, S. aureus; conditions: Staphylococcus aureus; MSSA 16-1, isolated from patients in China; read-out: MIC
MSSE ATCC 12228 = test: MIC, agar dilution, MSSE ATCC 12228; type: cell-based, S. epidermidis; conditions: Staphylococcus epidermidis, MSSE ATCC 12228, read-out: MIC
MSSE 16-5 = test: MIC, agar dilution, MSSE 16-5 (clinical isolate); type: cell-based, S. epidermidis; conditions: Staphylococcus epidermidis
S.s ATCC 15305 = test: MIC, agar dilution, S.s ATCC 15305; type: cell-based; conditions: Staphylococcus saprophyticus, ATCC15305; S. saprophyticus ATCC 15305; read-out: MIC
S.h ATCC 35982 = test: MIC, agar dilution, S.h ATCC 35982; type: cell-based; conditions: Staphylococcus hominis, ATCC35982
MRSA 13-18 = test: MIC, agar dilution, MRSA 13-18; type: cell-based; conditions: Staphylococcus aureus; MRSA 13-18; read-out: MIC
MRSA 13-23 = test: MIC, agar dilution, MRSA 13-23; type: cell-based; conditions: Staphylococcus aureus; MRSA 13-23; read-out: MIC
MRSA 16-34 = test: MIC, agar dilution, MRSA 16-34; type: cell-based; conditions: Staphylococcus aureus; MRSA 16-34; read-out: MIC
MRSA ATCC 43300 = test: MIC, agar dilution, MRSA ATCC 43300; type: cell-based; conditions: Staphylococcus aureus; MRSA ATCC 43300; read-out: MIC
MRSA ATCC-B AA-1708 = test: MIC, agar dilution, MRSA ATCC-BAA-1708 (mupA positive); type: cell-based; conditions: Staphylococcus aureus; MRSA ATCC-BAA-1708, mupA positive (mupirocin resistance); read-out: MIC
MRSA ATCC -BAA-976 = test: MIC, agar dilution, MRSA ATCC-BAA-976 (clindamycin-resistant); type: cell-based; conditions: Staphylococcus aureus
VISA ATCC 700698 = test: MIC, agar dilution, VISA ATCC 700698; type: cell-based; conditions: Staphylococcus aureus; VISA ATCC 700698; read-out: MIC
VISA ATCC 700699 = test: MIC, agar dilution, VISA ATCC 700699; type: cell-based; conditions: Staphylococcus aureus; VISA ATCC 700699; read-out: MIC
MRSE 13-3 = test: MIC, agar dilution, MRSE 13-3; type: cell-based, S. epidermidis; conditions: Staphylococcus epidermidis; MRSE 13-3; read-out: MIC
MRSE 16-5 = test: MIC, agar dilution, MRSE 16-5; type: cell-based, S. epidermidis; conditions: Staphylococcus epidermidis; MRSE 16-5; read-out: MIC
[1] = MSSA 15, isolated from patients in China, read-out: MIC
[2] = MSSE 16-5, isolated from patients in China, read-out: MIC
[3] = S. hominis ATCC 35982, read-out: MIC
[4] = MRSA ATCC-BAA-976, clindamycin-resistant S. aureus, read-out: MIC

MIC (MSSA ATCC 29213; MSSA ATCC 29213, read-out: MIC)	MIC (MSSA 15; [1])	MIC (MSSA 16-1)	MIC (MSSE ATCC 12228; ATCC12228)	MIC (MSSE 16-5; [2])	MIC (S.s ATCC 15305)	MIC (S.h ATCC 35982; [3])	MIC (MRSA 13-18)	MIC (MRSA 13-23)	MIC (MRSA 16-34)	MIC (MRSA ATCC 43300)	MIC (MRSA ATCC-B AA-1708)	MIC (MRSA ATCC -BAA-976; [4])	MIC (VISA ATCC 700698)	MIC (VISA ATCC 700699)	MIC (MRSE 13-3)	MIC (MRSE 16-5)	SMILES	further results
> 64 µg/mL	> 64 µg/mL	> 64 µg/mL	> 64 µg/mL	> 64 µg/mL	> 64 µg/mL	> 64 µg/mL	> 64 µg/mL	> 64 µg/mL	> 64 µg/mL	> 64 µg/mL	> 64 µg/mL	> 64 µg/mL	> 64 µg/mL	> 64 µg/mL	> 64 µg/mL	32 µg/mL	COc1ccc2c(c[n+]3ccc4cc5c(c6c(Cc7c(F)cccc7F)cc2c3c46)OCO5)c1O [13d, 1,2-Methylenedioxy-8-hydroxy-9-methoxy-13-2′,6′-difluorobenzylcycloberberine chloride]	–
> 64 µg/mL	> 64 µg/mL	> 64 µg/mL	> 64 µg/mL	> 64 µg/mL	> 64 µg/mL	> 64 µg/mL	> 64 µg/mL	> 64 µg/mL	> 64 µg/mL	> 64 µg/mL	> 64 µg/mL	> 64 µg/mL	> 64 µg/mL	> 64 µg/mL	64 µg/mL	64 µg/mL	COc1ccc2c(c[n+]3ccc4cc5c(c6c(Cc7ccccc7C)cc2c3c46)OCO5)c1O [13g, 1,2-Methylenedioxy-8-hydroxy-9-methoxy-13-o-methylbenzylcycloberberine chloride]	–
32 µg/mL	32 µg/mL	32 µg/mL	32 µg/mL	16 µg/mL	64 µg/mL	32 µg/mL	32 µg/mL	32 µg/mL	16 µg/mL	32 µg/mL	16 µg/mL	32 µg/mL	32 µg/mL	32 µg/mL	16 µg/mL	16 µg/mL	COc1ccc2c(c[n+]3ccc4cc5c(c6c(Cc7cc(C)cc(C)c7)cc2c3c46)OCO5)c1O [13j, 1,2-Methylenedioxy-8-hydroxy-9-methoxy-13-3′,5′-dimethylbenzylcycloberberine chloride]	–
32 µg/mL	32 µg/mL	16 µg/mL	16 µg/mL	8 µg/mL	32 µg/mL	32 µg/mL	16 µg/mL	32 µg/mL	16 µg/mL	32 µg/mL	8 µg/mL	16 µg/mL	32 µg/mL	32 µg/mL	8 µg/mL	8 µg/mL	COc1ccc2c(c[n+]3ccc4cc5c(c6c(Cc7ccc(C(C)(C)C)cc7)cc2c3c46)OCO5)c1O [13k, 1,2-Methylenedioxy-8-hydroxy-9-methoxy-13-p-tert-butylmethylbenzylcyclo berberine chloride]	–
32 µg/mL	32 µg/mL	32 µg/mL	32 µg/mL	32 µg/mL	64 µg/mL	64 µg/mL	32 µg/mL	32 µg/mL	32 µg/mL	64 µg/mL	32 µg/mL	64 µg/mL	64 µg/mL	32 µg/mL	32 µg/mL	32 µg/mL	COc1ccc2c(c[n+]3ccc4cc5c(c6c(Cc7ccc(OC(F)(F)F)cc7)cc2c3c46)OCO5)c1O [13l, 1,2-Methylenedioxy-8-hydroxy-9-methoxy-13-p-trifluoromethoxybenzylcyclo berberine chloride]	–
> 64 µg/mL	> 64 µg/mL	> 64 µg/mL	> 64 µg/mL	> 64 µg/mL	> 64 µg/mL	> 64 µg/mL	> 64 µg/mL	> 64 µg/mL	> 64 µg/mL	> 64 µg/mL	> 64 µg/mL	> 64 µg/mL	> 64 µg/mL	> 64 µg/mL	> 64 µg/mL	> 64 µg/mL	COc1ccc2c(c[n+]3ccc4cc5c(c6c(Cc7ccccc7C#N)cc2c3c46)OCO5)c1O [13m, 1,2-Methylenedioxy-8-hydroxy-9-methoxy-13-o-cyanbenzylcycloberberine chloride]	–
> 64 µg/mL	> 64 µg/mL	> 64 µg/mL	16 µg/mL	32 µg/mL	> 64 µg/mL	64 µg/mL	> 64 µg/mL	> 64 µg/mL	> 64 µg/mL	> 64 µg/mL	> 64 µg/mL	> 64 µg/mL	> 64 µg/mL	> 64 µg/mL	64 µg/mL	32 µg/mL	COc1ccc2c(c[n+]3ccc4cc5c(c6c(Cc7cccc(C#N)c7)cc2c3c46)OCO5)c1O [13n, 1,2-Methylenedioxy-8-hydroxy-9-dimethoxy-13-m-cyanbenzylcycloberberine chloride]	–
> 64 µg/mL	> 64 µg/mL	64 µg/mL	64 µg/mL	32 µg/mL	> 64 µg/mL	64 µg/mL	> 64 µg/mL	> 64 µg/mL	> 64 µg/mL	> 64 µg/mL	> 64 µg/mL	64 µg/mL	> 64 µg/mL	64 µg/mL	64 µg/mL	32 µg/mL	COc1ccc2c(c[n+]3ccc4cc5c(c6c(Cc7cccc([N+](=O)[O-])c7)cc2c3c46)OCO5)c1O [13q, 1,2-Methylenedioxy-8-hydroxy-9-methoxy-13-m-nitrobenzylcycloberberine chloride]	–
16 µg/mL	8 µg/mL	16 µg/mL	4 µg/mL	4 µg/mL	32 µg/mL	8 µg/mL	32 µg/mL	8 µg/mL	8 µg/mL	64 µg/mL	4 µg/mL	32 µg/mL	4 µg/mL	4 µg/mL	> 64 µg/mL	16 µg/mL	COc1ccc2c(c[n+]3ccc4cc5c(c6c(Cc7ccc([N+](=O)[O-])cc7)cc2c3c46)OCO5)c1O [13r, 1,2-Methylenedioxy-8-hydroxy-9-methoxy-13-p-nitrobenzylcycloberberine chloride]	–
2 µg/mL	2 µg/mL	2 µg/mL	2 µg/mL	1 µg/mL	8 µg/mL	2 µg/mL	4 µg/mL	4 µg/mL	2 µg/mL	4 µg/mL	2 µg/mL	2 µg/mL	4 µg/mL	2 µg/mL	4 µg/mL	2 µg/mL	CCCc1cc2c3ccc(OC)c(O)c3c[n+]3ccc4cc5c(c1c4c23)OCO5 [15b, 1,2-Methylenedioxy-8-hydroxy-9-methoxy-13-propylcycloberberine chloride]	–
8 µg/mL	4 µg/mL	4 µg/mL	8 µg/mL	8 µg/mL	16 µg/mL	4 µg/mL	4 µg/mL	8 µg/mL	8 µg/mL	4 µg/mL	8 µg/mL	4 µg/mL	4 µg/mL	4 µg/mL	16 µg/mL	8 µg/mL	CCCCc1cc2c3ccc(OC)c(O)c3c[n+]3ccc4cc5c(c1c4c23)OCO5 [15c, 1,2-Methylenedioxy-8-hydroxy-9-methoxy-13-butylcycloberberine chloride]	–

SMILES	MIC (MSSA ATCC 29213; MSSA ATCC 29213, read-out: MIC)	MIC (MSSA 15; [1])	MIC (MSSA 16-1)	MIC (MSSE ATCC 12228; ATCC12228)	MIC (MSSE 16-5; [2])	MIC (S.s ATCC 15305)	MIC (S.h ATCC 35982; [3])	MIC (MRSA 13-18)	MIC (MRSA 13-23)	MIC (MRSA 16-34)	MIC (MRSA ATCC 43300)	MIC (MRSA ATCC-B AA-1708)	MIC (MRSA ATCC -BAA-976; [4])	MIC (VISA ATCC 700698)	MIC (VISA ATCC 700699)	MIC (MRSE 13-3)	MIC (MRSE 16-5)	further results
C[C@H]1COc2c(N3CCN(C)CC3)c(F)cc3c(=O)c(C(=O)O)cn1c23 [Lev, levofloxacin, reference compound]	–	–	0.25 µg/mL (≈ 0.692 µM)	–	–	1 µg/mL (≈ 2.77 µM)	–	32 µg/mL (≈ 88.6 µM)	64 µg/mL (≈ 177 µM)	64 µg/mL (≈ 177 µM)	32 µg/mL (≈ 88.6 µM)	16 µg/mL (≈ 44.3 µM)	–	32 µg/mL (≈ 88.6 µM)	8 µg/mL (≈ 22.1 µM)	32 µg/mL (≈ 88.6 µM)	8 µg/mL (≈ 22.1 µM)	MIC (MSSA ATCC 29213): 0.125 µg/mL (≈ 0.346 µM); MIC (MSSA 15; MSSA): 0.125 µg/mL (≈ 0.346 µM); MIC (MSSE ATCC 12228; ATCC12228, 18 h): 0.126 µg/mL (≈ 0.349 µM); MIC (MSSE 16-5): 0.125 µg/mL (≈ 0.346 µM); MIC (S.h ATCC 35982): 0.125 µg/mL (≈ 0.346 µM); MIC (MRSA ATCC -BAA-976): 0.125 µg/mL (≈ 0.346 µM)
